Measurements as given in patent US8877736B2, “Method for treating keloid by administering 3′sialyllactose or 6′sialyllactose as a pharmaceutical or cosmetic” (Benebiosis Co., Ltd., priority 2009, dated 2014).
“Also recorded” adds a separate entry of the source.

How the values were obtained:
Assay type in all cases: cell-based
[1] = tested on: RAW 264.7 cells; test: Cytotoxicity analysis, MTT assay on RAW 264.7 cells; conditions: 0.001, 0.01, 0.1 and 1 mM, 5 days, compared with negative control (PBS), FIGS. 4a-4b
Description: Cytotoxicity of sialyllactose to cells other than keloid fibroblasts was analyzed RAW 264.7 cells (TIB-71) were purchased from ATCC. Dulbecco's Modified Eagle's Medium (DMEM) was purchased from JBI and supplemented with 100 U/ml penicillin, 100 μg/ml streptomycin, and 10% fetal bovine serum (FBS). Medium was replaced every 3-4 days. The cells were incubated at 37° C. in a CO2 incubator. For investigation of cell proliferation rate, MTT quantification was performed. RAW 264.7 cells were plated at 2.0×10^3 cells/well in a 96-well plate and 3′-SL or 6′-SL was treated at a concentration of 0.001, 0.01, 0.1, and 1 mM. A negative control group was treated with PBS. After 5 days, the cells were incubated with 500 μg/ml MTT solution for 4 hr at 37° C. […], the absorbance at 540 nm was measured using formazan in diumsulfoxide (DMSO). The relative survival rates of groups treated with sialyllactose were calculated with reference to untreated sialyllactose group (i.e., PBS treatment group, 100% survival rate).

[2] = tested on: Human keloid fibroblasts (CRL 1762); test: Cell counting of keloid fibroblasts (trypan blue); conditions: 1 mM, up to 12 days, compared with negative control (PBS), FIG. 1
Description: (§1) Human keloid fibroblasts (CRL 1762) were purchased from ATCC. Medium has the following composition: DMEM (Dulbecco's Modified Eagle's Medium), 4 mM L-glutamine, 100 μg/ml streptomycin, 100 U/ml penicillin and 10% fetal bovine serum. The fibroblasts were incubated at 37° C. in a CO2 incubator under humid atmosphere (5% CO2, 95% air). Medium was replaced every 3-4 days.
Keloid fibroblasts (KF) were plated at 5×10^4 cells/well in a 6-well plate. 24 hours later, KF was incubated with 1 mM 3′-sialyllactose (3′-SL), 6′-sialyllactose (6′-SL) or excipient (Phosphate buffered saline, PBS). 3′-Sialyllactose (3′-N-Acetylneuraminyl-D-lactose, 3′-Sialyl-D-lactose or α-NeuNAc-(2→3)-β-D-Gal-(1→4)-D-Glc) or 6′-sialyllactose (6′-N-Acetylneuraminyl-lactose, 6′-Sialyl-D-lactose, or α-NeuNAc-(2→6)-β-D-Gal-(1→4)-D-Glc) were purchased from Sigma-Aldrich. After 0, 1, 5, 7, 9, and 12 days, KF was collected using trypsin-EDTA and stained with trypan blue, followed by cell counting using a blood cell counter (C-Chip DHC N15, Incyto).

[3] = tested on: Human keloid fibroblasts (CRL 1762); test: TUNEL analysis of apoptosis of keloid fibroblasts; conditions: 1 mM, 0-5 days, FIG. 3
Description: as §1
Using in situ cell death detection kit (TUNEL, Roche Diagnostics), apoptosis was analyzed and DNA fragmentation in keloid fibroblasts was quantified. A single layer of keloid fibroblasts was cultured directly in a tissue culture flask and then incubated with 1 mM 3′-SL, 6′-SL or PBS. Following 0, 1, 3 and 5 days, the analysis was carried out according to the manufacturer's manual.

[4] = tested on: Human keloid fibroblasts (CRL 1762); test: XTT cell proliferation analysis of keloid fibroblasts; conditions: 1 mM, 0-5 days, compared with negative control (PBS), FIG. 2
Description: as §1
The rate of cell proliferation was measured using Roche's Cell Proliferation Kit II (XTT) system. Keloid fibroblasts (KF) were plated at 2.0×10^3 cells/well in a 96-well plate and then treated 3′-SL, 6′-SL and PBS at a concentration of 1 mM, respectively. After 0, 1, 3 and 5 days, KF was incubated with 50 μl/well of XTT (sodium 3′-[1-(phenylaminocarbonyl)-3,4-tetrazolium]-bis(4-methoxy-6-nitro) benzene sulfonic acid hydrate) reagent for 4 hr at 37° C. and the absorbance at 470 nm was measured using a microplate reader. The relative survival rates of groups treated with sialyllactose were calculated with reference to untreated sialyllactose group (i.e., excipient treatment group, 100% survival rate).

For `CC(=O)N[C@H]1[C@H]([C@H](O)[C@H](O)CO)O[C@@](OC[C@H]2O[C@@H](O[C@H]3[C@H](O)[C@@H](O)[C@H](O)O[C@@H]3CO)[C@H](O)[C@@H](O)[C@H]2O)(C(=O)O)C[C@@H]1O` [6′-SL, α-NeuNAc-(2→6)-β-D-Gal-(1→4)-D-Glc], which “proliferation of RAW 264.7 cells (MTT)” value [1] is on record?
Its value is “not affected”.

And the “growth of keloid fibroblasts (cell counting)” value [2]?
Its value is “considerably inhibited; also recorded: more significantly inhibited by 6′-SL than the 3′-SL”.

And the “apoptosis of keloid fibroblasts (TUNEL)” value [3]?
Its value is “more significantly inhibited by 6′-SL than the 3′-SL”.

And the “apoptosis of keloid fibroblasts (TUNEL)” value ([3]; listed as 6′ SL)?
Its value is “induced”.

And the “proliferation of keloid fibroblasts (XTT; text says MTT analysis)” value [4]?
Its value is “considerably inhibited; also recorded: more significantly inhibited by 6′-SL than the 3′-SL”.

How did the “proliferation of RAW 264.7 cells (MTT)” value [1] turn out when `CC(=O)N[C@H]1[C@H]([C@H](O)[C@H](O)CO)O[C@@](O[C@H]2[C@@H](O)[C@@H](CO)O[C@@H](O[C@H]3[C@H](O)[C@@H](O)C(O)O[C@@H]3CO)[C@@H]2O)(C(=O)O)C[C@@H]1O` (stereo partly drawn) [3′-SL, α-NeuNAc-(2→3)-β-D-Gal-(1→4)-D-Glc] was run?
Its value is “not affected”.

And the “growth of keloid fibroblasts (cell counting)” value [2]?
Its value is “considerably inhibited”.

And the “apoptosis of keloid fibroblasts (TUNEL)” value [3]?
The value was “induced”.

And the “proliferation of keloid fibroblasts (XTT; text says MTT analysis)” value [4]?
The value was “considerably inhibited”.
